{
  "source": "patent US20110082119A1",
  "about": "“PROPHYLACTIC/AMELIORATING OR THERAPEUTIC AGENT FOR NON-ALCOHOLIC STEATOHEPATITIS” (priority 2008, published 2011)",
  "key": {"NASH patients": {"test_system": "NASH patients", "assay": "Administration to patients with the definitive diagnosis of NASH for one year", "type": "in vivo, human", "procedure": "Patients with the definitive diagnosis of NASH are divided into 8 groups (each group consisting of 15 patients). EPA-E group is administered with Epadel S (Registered Trademark) 900 (containing 900 mg of EPA-E) twice a day. […] Administration of the Melbin (Registered Trademark) tablet is started from once a day, the dose is adequately adjusted depending on the conditions of the patient, and after 5 weeks from the start of the administration, the dose may be increased to twice a day, and after 9 weeks from the start of the administration, the dose may be increased to 3 times a day. The dose is adequately adjusted depending on the conditions of the patient. […] Administration of the Bayaspirin (Registered Trademark) tablet is started from twice a day at 10 tablet in total, and after 5 weeks from the start of the administration, the dose is reduced to once a day at 1 tablet in total. The dose is adequately adjusted depending on the conditions of the patient. […] Candesartan group is administered with Blopress (Registered Trademark) tablet 2 (containing 2 mg of candesartan cilexetil), and candesartan combination group is administered with Blopress (Registered Trademark) tablet 2 and Epadel S (Registered Trademark) 900 twice a day. Administration of the Mevalotin (Registered Trademark) tablet 5 and Blopress (Registered Trademark) tablet 2 is started from 1 tablet once a day, and after 5 weeks from the start of the administration, the dose is increased to twice a day at 2 tablets in total, and after 9 weeks from the start of the administration, the dose is further increased to twice a day at 4 tablets in total. The dose is adequately adjusted depending on the conditions of the patient. Criteria, monitoring, histological tests, statistical analysis of the patients are conducted according to the methods described in Am. J. Gastroenterol. 2001; 96: 2711-2717. Measurement of blood neutrophil count and HOMA-IR, blood biochemical tests such as ALT and AST are occasionally conducted during the administration period of one year, and liver biopsy is conducted after completing the administration for histological evaluation."}, "[1]": {"test_system": "SD rat fed with high-fat high-sucrose diet", "assay": "Effectiveness in high fat diet-fed rat", "type": "in vivo", "conditions": "HF diet 4 weeks", "procedure": "4 week old male SD rat is allowed to freely take normal diet (F-1, Funabashi Farm) or high-fat high-sucrose diet (TD88137, Harlan Teklad, hereinafter referred to as “HF diet”) for 4 weeks under 12 hour light-dark cycles at 23° C. […] The administration is conducted orally once a day. The normal group and the control group are orally administered with 5% aqueous solution of gum arabic once a day. After 4 weeks, blood is collected for determining neutrophil count and conduct biochemical tests of the plasma."}, "[2]": {"test_system": "rats fed with methionine-choline-deficient diet (NASH-like lesion in the liver)", "type": "in vivo", "conditions": "MCD diet 20 weeks, compared to the control group; for plasma AST / plasma ALT: oral once a day; for plasma AST: EPA-E 1000 mg/kg, acetylsalicylic acid 20 mg/kg; for plasma ALT: EPA-E 1000, metformin hydrochloride 40, acetylsalicylic acid 20, simvastatin 5, valsartan 20 mg/kg", "procedure": "Pharmacological action of EPA-E and/or metformin hydrochloride, acetylsalicylic acid, simvastatin, or valsartan on liver disorder and fibrosis is confirmed by using rats that have been fed with methionine-choline-deficient diet (hereinafter referred to as “MCD diet”) known to develop a NASH-like lesion in the liver.\n(§1) 7 week old male Wister rats are allowed to freely take normal diet (F-1, Funabashi Farm) or MCD diet (Dyets, Inc.) for 20 weeks under 12 hour light-dark cycles at 23° C. […] The administration is conducted orally once a day. The normal group and the control group are orally administered with 5% aqueous solution of gum arabic once a day. After 20 weeks, blood is collected for biochemical tests of the plasma, and pathological tests of the liver are also conducted."}, "NASH patient": {"test_system": "NASH patient", "conditions": "cited from earlier work"}, "[3]": {"test_system": "db/db mouse fed with MCD diet (NASH-like lesion in the liver)", "assay": "Effectiveness in methionine-choline deficient diet diabetes model mouse", "type": "in vivo", "conditions": "MCD diet 2 weeks, compared to the control group; for plasma ALT / plasma FFA amount: oral once a day, EPA-E 1000 mg/kg, metformin hydrochloride 80 mg/kg", "procedure": "Pharmacological action of EPA-E and/or metformin hydrochloride or olmesartan medoxomil for liver disorder and fibrosis is confirmed by using diabetes model rats that have been fed with MCD diet known to induce a NASH-like lesion in the liver.\nas §1, with “db/db mouse (Charles River Japan) is” for “Wister rats are”, “2” for “20”, “weeks, HOMA-IR is measured and” for “weeks,”, “test” for “tests”, “plasma.” for “plasma, and pathological tests of the liver are also conducted.”"}, "[4]": {"conditions": "administration period of one year, EPA-E group (Epadel S 900 twice a day) compared to the measurements before the treatment"}, "[5]": {"conditions": "one year, Epadel S 900 (900 mg EPA-E) twice a day, compared to the measurements before the treatment"}, "[6]": {"conditions": "oral once a day, compared to the control group, EPA-E 1000 mg/kg, atorvastatin calcium hydrate 10 mg/kg"}, "[7]": {"conditions": "EPA-E 1000 mg/kg oral once a day"}, "[8]": {"conditions": "NASH patient also suffering from hypertension, oral 50 mg/day for 48 weeks, Non-Patent Literature 9"}, "[9]": {"conditions": "NASH patient, oral 1500 mg/day for 4 months, Non-Patent Literature 4"}},
  "note": "Counter-ions that a name gives are not always drawn.",
  "data": [
    {"smiles": "CC/C=C\\C/C=C\\C/C=C\\C/C=C\\C/C=C\\CCCC(=O)OCC", "note": "[EPA-E, ethyl icosapentate]", "values": [
      {"measurement": "AST", "setting": "NASH patients; [4]", "result": "decrease"},
      {"measurement": "HOMA-IR", "setting": "NASH patients; [4]", "result": "improved"},
      {"measurement": "IL-6", "setting": "NASH patients; [4]", "result": "decrease"},
      {"measurement": "TNFα", "setting": "NASH patients; [4]", "result": "decrease"},
      {"measurement": "adiponectin", "setting": "NASH patients; [4]", "result": "increases"},
      {"measurement": "ferritin", "setting": "NASH patients; [4]", "result": "decrease"},
      {"measurement": "fibrosis marker", "setting": "NASH patients; [4]", "result": "decrease"},
      {"measurement": "high sensitivity CPR", "setting": "NASH patients; [4]", "result": "decrease"},
      {"measurement": "thioredoxin", "setting": "NASH patients; [4]", "result": "decrease"},
      {"measurement": "pathological test image of the liver tissue, overall rating of fat accumulation grade, inflammation grade and fibrosis stage by Brunt method", "setting": "NASH patients; liver biopsy after one year, EPA-E group compared to the condition before the administration", "result": "improves"},
      {"measurement": "AZT", "setting": "NASH patients; [5]", "result": "decrease"},
      {"measurement": "blood neutrophil count", "setting": "NASH patients; [5]", "result": "decrease"},
      {"measurement": "IL-6", "setting": "[1]; [6]", "result": "suppressed increase"},
      {"measurement": "TNFα", "setting": "[1]; [6]", "result": "suppressed increase"},
      {"measurement": "ferritin", "setting": "[1]; [6]", "result": "suppressed increase"},
      {"measurement": "high sensitivity CPR", "setting": "[1]; [6]", "result": "suppressed increase"},
      {"measurement": "neutrophil count", "setting": "[1]; [6]", "result": "suppressed increase"},
      {"measurement": "plasma ALT", "setting": "[1]; [6]", "result": "suppressed increase"},
      {"measurement": "plasma AST", "setting": "[1]; [6]", "result": "suppressed increase"},
      {"measurement": "thioredoxin", "setting": "[1]; [6]", "result": "suppressed increase"},
      {"measurement": "type IV collagen", "setting": "[1]; [6]", "result": "suppressed increase"},
      {"measurement": "liver hydroxyproline content", "setting": "[2]; [7]", "result": "suppressed increase"},
      {"measurement": "plasma TIMP-1 content", "setting": "[2]; [7]", "result": "suppressed increase"},
      {"measurement": "plasma albumin", "setting": "[2]; [7]", "result": "suppressed increase"},
      {"measurement": "plasma choline esterase", "setting": "[2]; [7]", "result": "suppressed increase"},
      {"measurement": "plasma hyaluronic acid", "setting": "[2]; [7]", "result": "suppressed increase"},
      {"measurement": "plasma total bilirubin", "setting": "[2]; [7]", "result": "suppressed increase"},
      {"measurement": "plasma total protein", "setting": "[2]; [7]", "result": "suppressed increase"},
      {"measurement": "plasma type Iv collagen", "setting": "[2]; [7]", "result": "suppressed increase"},
      {"measurement": "plasma AST", "setting": "[2]", "result": "suppressed increase"},
      {"measurement": "plasma ALT", "setting": "[2]", "result": "suppressed increase"},
      {"measurement": "fibrosis area of liver", "setting": "[2]; Masson's trichrome stain, EPA-E 1000 mg/kg oral once a day", "result": "suppressed increase"},
      {"measurement": "NASH (AST or ALT enzyme, inflammatory cytokine or oxidative stress marker, liver biopsy)", "setting": "NASH patient; 2700 mg/day of high purity EPA-E for 12 months, Tanaka et al., Non-Patent Literature 3", "result": "amelioration of NASH was demonstrated"},
      {"measurement": "TNFα", "setting": "[3]; [7]", "result": "suppressed increase"},
      {"measurement": "plasma AST", "setting": "[3]; [7]", "result": "suppressed increase"},
      {"measurement": "plasma TIMP-1", "setting": "[3]; [7]", "result": "suppressed increase"},
      {"measurement": "plasma adiponectin amount", "setting": "[3]; [7]", "result": "suppressed decrease"},
      {"measurement": "plasma hyaluronic acid", "setting": "[3]; [7]", "result": "suppressed increase"},
      {"measurement": "plasma type IV collagen", "setting": "[3]; [7]", "result": "suppressed increase"},
      {"measurement": "plasma ALT", "setting": "[3]", "result": "suppressed increase"},
      {"measurement": "plasma FFA amount", "setting": "[3]", "result": "suppressed increase"}
    ]},
    {"smiles": "CC(=O)Oc1ccccc1C(=O)O", "note": "[acetylsalicylic acid]", "values": [
      {"measurement": "improvement of the parameters over the control group", "setting": "[1]; acetylsalicylic acid 10 mg/kg oral once a day", "result": "does not exhibit significant improvement"},
      {"measurement": "effects on plasma and liver parameters like those of the EPA-E group", "setting": "[2]; acetylsalicylic acid 20 mg/kg oral once a day", "result": "does not exhibit effects like those of the EPA-E group"},
      {"measurement": "plasma AST", "setting": "[2]", "result": "exacerbated"},
      {"measurement": "plasma ALT", "setting": "[2]", "result": "exacerbated"}
    ]},
    {"smiles": "CC(C)c1c(C(=O)Nc2ccccc2)c(-c2ccccc2)c(-c2ccc(F)cc2)n1CC[C@@H](O)C[C@@H](O)CC(=O)O", "note": "[atorvastatin, atorvastatin calcium hydrate]", "values": [
      {"measurement": "IL-6", "setting": "[1]; [6]", "result": "suppressed increase"},
      {"measurement": "TNFα", "setting": "[1]; [6]", "result": "suppressed increase"},
      {"measurement": "ferritin", "setting": "[1]; [6]", "result": "suppressed increase"},
      {"measurement": "high sensitivity CPR", "setting": "[1]; [6]", "result": "suppressed increase"},
      {"measurement": "neutrophil count", "setting": "[1]; [6]", "result": "suppressed increase"},
      {"measurement": "thioredoxin", "setting": "[1]; [6]", "result": "suppressed increase"},
      {"measurement": "type IV collagen", "setting": "[1]; [6]", "result": "suppressed increase"}
    ]},
    {"smiles": "CCCCc1nc(Cl)c(CO)n1Cc1ccc(-c2ccccc2-c2nn[nH]n2)cc1", "note": "[losartan]", "values": [
      {"measurement": "ALT", "setting": "NASH patient; [8]", "result": "improvement"},
      {"measurement": "ferritin", "setting": "NASH patient; [8]", "result": "improvement"},
      {"measurement": "type IV collagen", "setting": "NASH patient; [8]", "result": "improvement"}
    ]},
    {"smiles": "CN(C)C(=N)N=C(N)N", "note": "[metformin, metformin hydrochloride]", "values": [
      {"measurement": "plasma ALT", "setting": "[2]", "result": "suppression of the increase"},
      {"measurement": "lactic acid level", "setting": "NASH patient; [9]", "result": "significant increase"},
      {"measurement": "serum alanine aminotransferase (ALT) level", "setting": "NASH patient; [9]", "result": "significant decrease"},
      {"measurement": "HOMA-IR", "setting": "[3]; metformin hydrochloride 80 mg/kg oral once a day", "result": "improved"},
      {"measurement": "plasma ALT", "setting": "[3]", "result": "suppressed increase"},
      {"measurement": "plasma FFA amount", "setting": "[3]", "result": "suppressed increase"}
    ]},
    {"smiles": "CCCCC(=O)N(Cc1ccc(-c2ccccc2-c2nnn[nH]2)cc1)[C@H](C(=O)O)C(C)C", "note": "[valsartan]", "values": [
      {"measurement": "plasma ALT", "setting": "[2]", "result": "suppression of the increase"}
    ]}
  ]
}
